In ChEMBL document CHEMBL1201862, “PubChem BioAssay data set” (2004):
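Briefly, cells in 96-well plates were exposed to five compound concentrations for 48 h, and endpoints were estimated by linear interpolation. GI50: concentration for 50% inhibition of growth.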 Active and inactive are the calls of the source. Rule as the data show it: active = GI50 up to about 1.1 µM and inactive = higher.

How the values were obtained:
Assay in all cases: DTP human tumour cell line panel, 48 h
[1] = tested on: NCI-H23
[2] = tested on: LOX IMVI
[3] = tested on: SNB-19
[4] = tested on: SK-MEL-28
[5] = tested on: OVCAR-8
[6] = tested on: SF-295
[7] = tested on: UACC-257
[8] = tested on: M19-MEL
[9] = tested on: HCT-116
[10] = tested on: SK-MEL-2
[11] = tested on: XF498
[12] = tested on: OVCAR-5
[13] = tested on: Malme-3M
[14] = tested on: OVCAR-4
[15] = tested on: IGROV-1
[16] = tested on: SF-539
[17] = tested on: CAKI-1
[18] = tested on: RXF 631
[19] = tested on: HOP-62
[20] = tested on: KM-20L2
[21] = tested on: SR
[22] = tested on: M14
[23] = tested on: NCI-H522
[24] = tested on: OVCAR-3
[25] = tested on: ACHN
[26] = tested on: HT-29
[27] = tested on: HCC 2998
[28] = tested on: LXFL 529
[29] = tested on: SW-620
[30] = tested on: COLO 205
[31] = tested on: A549
[32] = tested on: K562
[33] = tested on: SF-268
[34] = tested on: TK-10
[35] = tested on: EKVX
[36] = tested on: UACC-62
[37] = tested on: HL-60
[38] = tested on: DMS-114
[39] = tested on: SN12C
[40] = tested on: RXF 393
[41] = tested on: 786-0
[42] = tested on: HOP-92
[43] = tested on: RPMI-8226
[44] = tested on: SNB-75
[45] = tested on: DLD-1
[46] = tested on: SK-OV-3
[47] = tested on: NCI-H226

`O=[N+]([O-])c1c(/C=N/Nc2ccccc2)oc(-c2ccc3c(c2)OCO3)c1-c1ccc2c(c1)OCO2` was tested, and the GI50 [1] was 51.2 µM (inactive), the GI50 [2] was 0.74 µM (active) and the GI50 [3] was 70.3 µM (inactive). The GI50 [4] was 23.4 µM (inactive), the GI50 [5] was 5.56 µM (inactive) and the GI50 [6] was 26.9 µM (inactive). The GI50 [7] was 30.3 µM (inactive), the GI50 [8] was 13.8 µM (inactive) and the GI50 [9] was 8.47 µM (inactive). For the same compound, the GI50 [10] was 2.49 µM (inactive), the GI50 [11] was 2.89 µM (inactive) and the GI50 [12] was 5.79 µM (inactive). For the same compound, the GI50 [13] was 16.4 µM (inactive), the GI50 [14] was 21.5 µM (inactive) and the GI50 [15] was 6.14 µM (inactive). For the same compound, the GI50 [16] was 3.16 µM (inactive), the GI50 [17] was 8.22 µM (inactive) and the GI50 [18] was 65.8 µM (inactive). The GI50 [19] was 3.9 µM (inactive), the GI50 [20] was 2.24 µM (inactive) and the GI50 [21] was 1.54 µM (inactive). For the same compound, the GI50 [22] was 3 µM (inactive), the GI50 [23] was 27 µM (inactive) and the GI50 [24] was 5.77 µM (inactive). For the same compound, the GI50 [25] was 4.28 µM (inactive), the GI50 [26] was 23.8 µM (inactive) and the GI50 [27] was 5.71 µM (inactive). The GI50 [28] was 0.746 µM (active), the GI50 [29] was 11.1 µM (inactive) and the GI50 [30] was 18.2 µM (inactive). For the same compound, the GI50 [31] was 11 µM (inactive), the GI50 [32] was 3.06 µM (inactive) and the GI50 [33] was 3.93 µM (inactive). For the same compound, the GI50 [34] was 19 µM (inactive), the GI50 [35] was 12.4 µM (inactive) and the GI50 [36] was 3.19 µM (inactive). The GI50 [37] was 4.57 µM (inactive), the GI50 [38] was 5.02 µM (inactive) and the GI50 [39] was 64.3 µM (inactive). For the same compound, the GI50 [40] was 36.5 µM (inactive), the GI50 [41] was 19.2 µM (inactive) and the GI50 [42] was 19.8 µM (inactive). The GI50 [43] was 5.78 µM (inactive), the GI50 [44] was 23.4 µM (inactive) and the GI50 [45] was 5.73 µM (inactive). The GI50 [46] was 30.5 µM (inactive) and the GI50 [47] was > 100 µM (inactive).
